Earlier results, collected in patent publication US20040102473A1, “Method of preventing or treating atherosclerosis or restenosis” (priority 2002, published 2004).

Tested on: CMV
Conditions: DHPG prophylaxis, Lemstrom et al., Circulation 1994

For Nc1nc(O)c2ncn(COC(CO)CO)c2n1 [Ganciclovir], the “prevention of atherosclerosis resulting from CMV infection of rats” value is listed as “prevent atherosclerosis”.
